Experiments:
Rats = experiment: Rat model of post-operative ileus (methylene blue meal transit); assay type: in vivo; conditions: 3 mg/kg intravenous infusion; four hours post-gavage; eight rats; p<0.05; vehicle 49.3 cm
Method: Activity in Vivo: Rat Model of Post Perative Ileus
The selective COX-2 inhibitor 2-(4-ethoxy-phenyl)-3-(4-methanesulfonyl-phenyl)-pyrazolo[1,5-b]pyridazine was evaluated in a rat model of post-operative ileus. The methodology represents a modification of the procedure described by McGill et al, Gastroenterology 116: A1040 (1999).
Rats (fourteen) received 0.5 cc of skimmed milk with methylene blue by gavage. Either vehicle (six rats) or 2-(4-ethoxy-phenyl)-3-(4-methanesulfonyl-phenyl)-pyrazolo[1,5-b]pyridazine (eight rats) was then administered by intravenous infusion. Rats were sacrificed four hours post-gavage and the distance the methylene blue meal traversed the intestine measured. The pylorus was set at 0 cm. With vehicle treatment, the meal traversed 49.3+1.3 cm while with 2-(4-ethoxy-phenyl)-3-(4-methanesulfonyl-phenyl)-pyrazolo[1,5-b]pyridazine (3 mg/kg), the meal traversed 67.8±1.1 cm (p<0.05).

[1] = tested on: canine fundic circular muscle; experiment: Smooth muscle in vitro model: fundic circular muscle strips, tension change; assay type: cell-based; conditions: test agent 10 μM; n=6-8 strips; FIG. 2
Beagle dogs = experiment: Dog model of gastric emptying (solid phase, gamma camera); assay type: in vivo; conditions: po for three days, measured on fourth day after am dosing; cisapride 0.14 mg/kg TID, celecoxib 2.8 mg/kg BID, 8-acetyl compound 1.2 mg/kg BID; FIG. 3
Method: Activity in Vivo: Dog Model of Gastric Emptying
Beagle dogs were treated for three days with test agents (po administration): placebo BID; cisapride 0.14 mg/kg TID; celecoxib 2.8 mg/kg BID; or 8-acetyl-3-(4-fluoro-phenyl)-2-(4-methanesulfonyl-phenyl)-imidazo[1,2-a]pyridine 1.2 mg/kg BID. Solid phase gastric emptying was measured on the fourth day following am dosing. The same three animals were used for evaluation of each agent, thus reducing any interanimal variations.
Isotope-labeled solid food was fed to the dogs for their morning meal and animals were then placed under a gamma camera and scans performed over the 24 to 36 hours.

dogs = experiment: Dog model of lower esophageal sphincter pressure (LESP); assay type: in vivo; conditions: 3 days treatment, measured day 4 after am dose; cisapride 0.14 mg/kg TID, celecoxib 1.2 mg/kg BID; compared to placebo; FIG. 4
Method: Activity in Vivo: Dog Model of Lower Esophageal Sphincter Pressure (LESP) Six adult dogs were instrumented with 14 French esophagostomy tubes. Animals were treated for 3 days with placebo (BID), cisapride (0.14 mg/kg TID) or celecoxib (1.2 mg/kg BID). On day 4 dogs received their am dose of test agent and water perfused manometry catheters were inserted through the esophagostomy tubes. Lower esophageal sphincter pressures (LESPs) were then monitored.

[2] = tested on: canine antrum circular muscles; experiment: Smooth muscle in vitro model: antral circular muscle strips, acetylcholine-induced contraction; assay type: cell-based; conditions: test agent 10 μM; acetylcholine 1 μM; organ bath, Krebs solution; n=4-8 strips; FIG. 1
Method: Smooth Muscle in Vitro Model of Gastric Propulsion
Agents which stimulate antral smooth muscle activity would be expected to enhance the rate of gastric emptying by propulsion of contents in the aboral direction. By contrast, fundic relaxation could lead to delayed emptying of the stomach as the upper stomach would serve as a reservoir for gastric contents.
The effects of test agents were evaluated on strips of canine antrum circular muscles (n=4-8 strips) suspended in organ baths bathed with Krebs solution. Following establishment of baseline tension, acetylcholine (“ACh”; 1 μM), indomethacin (10 μM), or 8-acetyl-3-(4-fluoro-phenyl)-2-(4-methanesulfonyl-phenyl)-imidazo[1,2-a]pyridine (“8-Acetyl- . . . ”; 10 μM) were applied and tension changes monitored and recorded on a polygraph.

CCOc1ccc(-c2nn3ncccc3c2-c2ccc(S(C)(=O)=O)cc2)cc1 [2-(4-ethoxy-phenyl)-3-(4-methanesulfonyl-phenyl)-pyrazolo[1,5-b]pyridazine]
distance the methylene blue meal traversed the intestine (pylorus = 0 cm) (Rats): 67.8±1.1 cm

CC(=O)c1cccn2c(-c3ccc(F)cc3)c(-c3ccc(S(C)(=O)=O)cc3)nc12 [8-acetyl-3-(4-fluoro-phenyl)-2-(4-methanesulfonyl-phenyl)-imidazo[1,2-a]pyridine]
relaxation / tension change of fundic circular muscle [1]: only small changes in tension | rate of solid phase gastric emptying (Beagle dogs): increased the rate of gastric emptying

COc1cc(N)c(Cl)cc1C(=O)NC1CCN(CCCOc2ccc(F)cc2)CC1OC (stereo not shown) [Cisapride, cisapride]
rate of solid phase gastric emptying (Beagle dogs): increased the rate of gastric emptying | lower esophageal sphincter pressure (LESP) (dogs): increased LESP

COc1ccc2c(c1)c(CC(=O)O)c(C)n2C(=O)c1ccc(Cl)cc1 [indomethacin]
sensitisation of antral circular muscle to acetylcholine-induced contractions [2]: enhanced acetylcholine-induced contractions | relaxation / tension change of fundic circular muscle [1]: near complete relaxation

Reference: patent US20030013717A1, “Use of cox-2 inhibitors for constipation” (priority 2000, published 2003)
